{
  "source": "paper PMC10442399",
  "about": "“Crystal structure and functional implications of cyclic di-pyrimidine-synthesizing cGAS/DncV-like nucleotidyltransferases” (Nature Communications, 2023)",
  "key": {"[1]": {"target": "T1, EfCdnE (Enterococcus faecalis, UniProt P0DX98)", "T1 construct": "Full-length gene fragments encoding ClCdnE from Cecembia lonarensis; made in house; host or cells: E. coli BL21 (DE3)", "test": "ITC analysis of nucleotide binding to wild-type EfCdnE", "protocol": "(§1) EfCdnE was chosen as the sample to evaluate the affinity of this class of enzyme to different nucleotides by isothermal titration calorimetry (ITC), using nano-ITC (TA Instruments). EfCdnE was dialyzed overnight against an assay buffer containing 20 mM Tris pH 8.0, 150 mM NaCl. The nucleotides to be tested (UTP, CTP, ATP and GTP, and their analogs) were each dissolved in the same buffer. Titration was carried out by 20 sequential injections of the nucleotide at a concentration of 250 μM at 3-min intervals to 50 μM EfCdnE, with a stirring speed of 300 rpm. The heat of dilution resulting from injecting the nucleotide into the assay buffer was subtracted. The final data were analyzed and curve-fitted with sequential two-site mode by using NanoAnalyze v3.12.5 (TA Instruments)."}, "[2]": {"target": "T2, EfCdnE^W281A (Enterococcus faecalis, UniProt P0DX98, W281A)", "T2 construct": "Full-length gene fragments encoding ClCdnE from Cecembia lonarensis; His6 (C); made in house; host or cells: E. coli BL21 (DE3)", "T2 sequence (P0DX98 1-299 W281A)": "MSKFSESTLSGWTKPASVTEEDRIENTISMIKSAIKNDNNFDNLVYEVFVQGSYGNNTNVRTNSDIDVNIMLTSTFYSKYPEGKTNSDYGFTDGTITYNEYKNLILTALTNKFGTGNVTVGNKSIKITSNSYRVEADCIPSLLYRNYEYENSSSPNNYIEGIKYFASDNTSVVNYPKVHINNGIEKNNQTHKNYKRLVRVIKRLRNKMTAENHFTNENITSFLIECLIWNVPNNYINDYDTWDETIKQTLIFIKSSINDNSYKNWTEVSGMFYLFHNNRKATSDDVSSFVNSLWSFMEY", "test": "ITC analysis of nucleotide binding to EfCdnE^W281A mutant", "conditions": "read-out: dissociation constant (KD)", "from_the_text": "(§2) To validate the importance of this motif, we changed Arg279 and Trp281 of EfCdnE to a smaller alanine residue and assessed the substrate specificity and product synthesis of both wild-type and mutant EfCdnE by ITC and LC-MS/MS. […] Based on sequence conservation and structural similarity, it is proposed that the cyclic di-pyrimidine-synthesizing CdnE proteins, including ClCdnE, EfCdnE, and LpCdnE, form smaller donor pockets that act as molecular gauges to recognize and retain the binding of pyrimidine nucleotides but weaken or exclude the binding to purine nucleotides (Fig. 6F). In combination with the conserved Asn residue in the acceptor pocket, the substrate specificity for double pyrimidine was achieved (Fig. 6F).\nas §1, with “Titration was carried out by 20 sequential injections of the nucleotide at a concentration of 250 μM at 3-min intervals to 50 μM EfCdnE, with a stirring speed of 300 rpm. The heat of dilution resulting from injecting the nucleotide into the assay buffer was subtracted.” left out"}, "[3]": {"target": "T3, EfCdnE^R279A (Enterococcus faecalis, UniProt P0DX98, R279A)", "T3 construct": "Full-length gene fragments encoding ClCdnE from Cecembia lonarensis; His6 (C); made in house; host or cells: E. coli BL21 (DE3)", "T3 sequence (P0DX98 whole entry R279A, the tested form may be a part)": "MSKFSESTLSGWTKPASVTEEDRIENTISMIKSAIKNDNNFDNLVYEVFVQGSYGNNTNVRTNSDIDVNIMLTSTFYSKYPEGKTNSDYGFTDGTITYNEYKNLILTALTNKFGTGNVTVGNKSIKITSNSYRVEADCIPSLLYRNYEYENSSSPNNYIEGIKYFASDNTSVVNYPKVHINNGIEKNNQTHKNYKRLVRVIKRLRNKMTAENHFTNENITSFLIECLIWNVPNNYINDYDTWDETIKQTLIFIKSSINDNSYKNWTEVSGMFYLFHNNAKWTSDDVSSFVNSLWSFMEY", "test": "ITC analysis of nucleotide binding to EfCdnE^R279A mutant", "from_the_text": "as §2\nas §1, with “Titration was carried out by 20 sequential injections of the nucleotide at a concentration of 250 μM at 3-min intervals to 50 μM EfCdnE, with a stirring speed of 300 rpm. The heat of dilution resulting from injecting the nucleotide into the assay buffer was subtracted.” left out"}, "[4]": {"conditions": "dissociation constant (KD), second of two binding sites, ITC, wild-type EfCdnE, sequential two-site fit, second-named site (acceptor pocket for UMPnPP)"}},
  "note": "Entries after “also recorded” stand apart in the source; their conditions may differ. Like-named read-outs stand apart in the source and are kept apart here.",
  "data": [
    {"molecule": "O=c1ccn([C@@H]2O[C@H](COP(=O)(O)NP(=O)(O)OP(=O)(O)O)[C@@H](O)[C@H]2O)c(=O)[nH]1", "note": "[UMPnPP]", "values": [
      {"measurement": "Kd", "setting": "[1]", "value": 0.0147, "unit": "µM"},
      {"measurement": "Kd", "setting": "[1]; [4]", "value": 0.98, "unit": "µM"}
    ]},
    {"molecule": "Nc1nc2c(ncn2[C@@H]2O[C@H](COP(=O)(O)CP(=O)(O)OP(=O)(O)O)[C@@H](O)[C@H]2O)c(=O)[nH]1", "note": "[GMPcPP]", "values": [
      {"measurement": "binding to EfCdnE (in words)", "setting": "[1]; ITC, wild-type EfCdnE", "value": "No binding; also recorded: too weak to be detected"},
      {"measurement": "Kd", "setting": "[2]", "value": 65, "unit": "µM"}
    ]},
    {"molecule": "Nc1ccn([C@@H]2O[C@H](COP(=O)(O)CP(=O)(O)OP(=O)(O)O)[C@@H](O)[C@H]2O)c(=O)n1", "note": "[CMPcPP]", "values": [
      {"measurement": "Kd", "setting": "[1]", "value": 0.0187, "unit": "µM"},
      {"measurement": "binding to EfCdnE pre-incubated with UMPnPP (in words)", "setting": "[1]; ITC, EfCdnE pre-incubated with UMPnPP", "value": "no binding; also recorded: did not bind"},
      {"measurement": "Kd", "setting": "[1]; [4]", "value": 1.27, "unit": "µM"}
    ]},
    {"molecule": "Nc1nc2c(ncn2[C@@H]2O[C@H](COP(=O)(O)OP(=O)(O)OP(=O)(O)O)[C@@H](O)[C@H]2O)c(=O)[nH]1", "note": "[GTP]", "values": [
      {"measurement": "binding affinity, dissociation constant (in words)", "setting": "[3]", "value": "near micromolar"},
      {"measurement": "binding to EfCdnE (in words)", "setting": "[1]; ITC, wild-type EfCdnE", "value": "did not"}
    ]},
    {"molecule": "Nc1ncnc2c1ncn2[C@@H]1O[C@H](COP(=O)(O)OP(=O)(O)OP(=O)(O)O)[C@@H](O)[C@H]1O", "note": "[ATP]", "values": [
      {"measurement": "binding affinity, dissociation constant (in words)", "setting": "[3]", "value": "near micromolar"},
      {"measurement": "binding to EfCdnE (in words)", "setting": "[1]; ITC, wild-type EfCdnE", "value": "did not"}
    ]},
    {"molecule": "Nc1ncnc2c1ncn2[C@@H]1O[C@H](COP(=O)(O)CP(=O)(O)OP(=O)(O)O)[C@@H](O)[C@H]1O", "note": "[AMPcPP]", "values": [
      {"measurement": "binding to EfCdnE (in words)", "setting": "[1]; ITC, wild-type EfCdnE", "value": "No binding; also recorded: too weak to be detected"},
      {"measurement": "Kd", "setting": "[2]", "value": 35, "unit": "µM"}
    ]}
  ]
}
